This experiment addresses T1, human FSH receptor (Homo sapiens, UniProt P23945).
T1 construct: expressed in transfected cells; host or cells: CHO cells, cotransfected with a CRE/promotor firefly luciferase reporter
T1 sequence (P23945 18-695): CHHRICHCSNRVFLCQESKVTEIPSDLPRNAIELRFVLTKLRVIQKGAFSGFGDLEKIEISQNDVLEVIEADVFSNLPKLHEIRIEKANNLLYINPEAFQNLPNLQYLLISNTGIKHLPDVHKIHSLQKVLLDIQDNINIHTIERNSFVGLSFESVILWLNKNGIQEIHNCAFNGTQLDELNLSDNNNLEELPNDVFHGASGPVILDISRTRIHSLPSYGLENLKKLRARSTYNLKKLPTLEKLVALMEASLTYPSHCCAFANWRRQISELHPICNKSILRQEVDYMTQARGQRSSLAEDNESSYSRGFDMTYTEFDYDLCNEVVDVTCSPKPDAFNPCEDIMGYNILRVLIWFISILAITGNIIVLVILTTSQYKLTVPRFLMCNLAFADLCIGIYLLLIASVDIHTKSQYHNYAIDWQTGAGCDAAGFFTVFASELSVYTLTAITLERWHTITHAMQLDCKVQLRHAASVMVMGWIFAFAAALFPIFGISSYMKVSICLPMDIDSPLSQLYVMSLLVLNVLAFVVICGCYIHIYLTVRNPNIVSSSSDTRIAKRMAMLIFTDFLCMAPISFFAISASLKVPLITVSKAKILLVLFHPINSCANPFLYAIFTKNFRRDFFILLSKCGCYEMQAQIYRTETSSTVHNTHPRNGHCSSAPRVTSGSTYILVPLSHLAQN
As to the kind of experiment: Antagonistic activity at the human FSH receptor expressed in CHO cells (CRE-luciferase reporter). The class given is cell-based. The following applies: CHO cells stably transfected with human FSH receptor and CRE/firefly luciferase reporter; 4 hours incubation; read-out: pIC50 (negative logarithm of the IC50 value) (converted). The procedure:
The FSHR antagonists of the invention have pIC50 values higher than 6 in said assay. The preferred compounds of the invention have pIC50 values higher than 8.
Antagonistic activity of the compounds at the human FSH receptor was determined in Chinese Hamster Ovary (CHO) cells stably transfected with the human FSH receptor and cotransfected with a cAMP responsive element (CRE)/promotor directing the expression of a firefly luciferase reporter gene. […] The cells (7,500 cells/well of a 384 well plate) were incubated in Dulbecco′ minimal essential F12 modified medium (Invitrogen), supplemented with 1 μg/ml bovine insulin, 5 μg/ml human apo-transferrin, 100 U/ml penicillin G and 100 μg/ml streptomycin with the test compounds (concentration between 0.316 nM and 10.0 μM) in duplicate together with […] (which, at this concentration in the absence of test compound, induces 80% of the maximal luciferase stimulation) in a humidified atmosphere (95%) at 5-7% CO2 and 37° C. The final concentration of DMSO was 1%. After 4 hours of incubation, plates were allowed to adjust to room temperature for 1 hour. Then, SteadyLite (Perkin Elmer) solution was added to the wells and cells were allowed to lyse for at least 1 hour at room temperature. Subsequently, luciferase activity was measured in a luminescence counter. The signal is expressed as counts per second (cps). The IC50 (concentration of test compound causing half-maximal (50%) inhibition of the maximally attainable inhibition of the luciferase stimulation by the compound) and efficacy of the compounds were determined using the software program MathIQ (version 2.3, ID Business Solutions Limited).
(In general: A reporter such as luciferase makes a cellular process visible.)

Usually IC50 stands for the point on the concentration scale where inhibition reaches its midpoint. Turning to `COc1cc(OCc2ccccc2)cc(C(=O)NCC2CCN(c3ccnc(-c4cccc(-n5cccn5)c4)n3)CC2)c1` [Example 11, N-((1-(2-(3-(1H-pyrazol-1-yl)phenyl)pyrimidin-4-yl)piperidin-4-yl)methyl)-3-(benzoxy)-5-methoxybenzamide], the IC50 was 10 to 100 nM. With `COc1cc(OCc2ccccc2)cc(C(=O)NCC2CCN(c3ncnc(-c4cccc(-c5ccccn5)c4)n3)CC2)c1` [Example 12B, 3-(benzoxy)-5-methoxy-N-((1-(4-(3-(pyridin-2-yl)phenyl)-1,3,5-triazin-2-yl)piperidin-4-yl)methyl)benzamide], the IC50 is 10 to 100 nM. Regarding `COc1cc(OCc2ccc(F)cc2)cc(C(=O)NCC2CCN(c3ccnc(-c4cccc(-n5cccn5)c4)n3)CC2)c1` [Example 14, N-((1-(2-(3-(1H-pyrazol-1-yl)phenyl)pyrimidin-4-yl)piperidin-4-yl)methyl)-3-(4-fluorobenzoxy)-5-methoxybenzamide], the IC50 is 10 to 100 nM.

On to `COc1cc(OCC2CC2)cc(C(=O)NCC2CCN(c3ccnc(-c4cccc(-n5cccn5)c4)n3)CC2)c1` [Example 15A, N-((1-(2-(3-(1H-pyrazol-1-yl)phenyl)pyrimidin-4-yl)piperidin-4-yl)methyl)-3-(cyclopropylmethoxy)-5-methoxybenzamide], for which the IC50 was less than 10 nM. As to `COc1cc(OCc2cc(C)on2)cc(C(=O)NCC2CCN(c3ccnc(-c4cccc(-n5cccn5)c4)n3)CC2)c1` [Example 15B, N-((1-(2-(3-(1H-pyrazol-1-yl)phenyl)pyrimidin-4-yl)piperidin-4-yl)methyl)-3-methoxy-5-((5-methylisoxazol-3-yl)methoxy)benzamide], the IC50 is less than 10 nM. Then `COc1cc(OCCCO)cc(C(=O)NCC2CCN(c3ccnc(-c4cccc(-n5cccn5)c4)n3)CC2)c1` [Example 15C, N-((1-(2-(3-(1H-pyrazol-1-yl)phenyl)pyrimidin-4-yl)piperidin-4-yl)methyl)-3-(3-hydroxypropoxy)-5-methoxybenzamide], with 10 to 100 nM; and `COCCOc1cc(OC)cc(C(=O)NCC2CCN(c3ccnc(-c4cccc(-n5cccn5)c4)n3)CC2)c1` [Example 15D, N-((1-(2-(3-(1H-pyrazol-1-yl)phenyl)pyrimidin-4-yl)piperidin-4-yl)methyl)-3-methoxy-5-(2-methoxyethoxy)benzamide], with 10 to 100 nM; and `COc1cc(OCC2CC2)cc(C(=O)NCC2CCN(c3ncnc(-c4cccc(-n5cccn5)c4)n3)CC2)c1` [Example 17A, N-((1-(4-(3-(1H-pyrazol-1-yl)phenyl)-1,3,5-triazin-2-yl)piperidin-4-yl)methyl)-3-(cyclopropylmethoxy)-5-methoxybenzamide], with less than 10 nM. With `COc1cc(OCC2CCOCC2)cc(C(=O)NCC2CCN(c3ncnc(-c4cccc(-n5cccn5)c4)n3)CC2)c1` [Example 17B, N-((1-(4-(3-(1H-pyrazol-1-yl)phenyl)-1,3,5-triazin-2-yl)piperidin-4-yl)methyl)-3-methoxy-5-((tetrahydro-2H-pyran-4-yl)methoxy)benzamide] the figure was 10 to 100 nM; with `COc1cc(OCc2ccoc2)cc(C(=O)NCC2CCN(c3ncnc(-c4cccc(-n5cccn5)c4)n3)CC2)c1` [Example 17C], 10 to 100 nM. Turning to `CNC(=O)COc1cc(OC)cc(C(=O)NCC2CCN(c3ncnc(-c4cccc(-n5cccn5)c4)n3)CC2)c1` [Example 17D, N-((1-(4-(3-(1H-pyrazol-1-yl)phenyl)-1,3,5-triazin-2-yl)piperidin-4-yl)methyl)-3-methoxy-5-(2-(methylamino)-2-oxoethoxy)benzamide], the IC50 is 10 to 100 nM. With `COc1cc(OC)cc(C(=O)NCC2CCN(c3ccnc(-c4cccc(-c5ccn[nH]5)c4)n3)CC2)c1` [Example 18, N-((1-(2-(3-(1H-pyrazol-5-yl)phenyl)pyrimidin-4-yl)piperidin-4-yl)methyl)-3,5-dimethoxybenzamide] the figure was 10 to 100 nM. Consider `COc1cc(OCC2CC2)cc(C(=O)NCC2CCN(c3nc(-c4cccc(C#N)c4)ncc3F)CC2)c1` [Example 19B, N-((1-(2-(3-cyanophenyl)-5-fluoropyrimidin-4-yl)piperidin-4-yl)methyl)-3-(cyclopropylmethoxy)-5-methoxybenzamide], for which the IC50 is 10 to 100 nM. With `COc1cc(OCC2CC2)cc(C(=O)NCC2CCN(c3nc(-c4cccc(-c5ccn[nH]5)c4)ncc3F)CC2)c1` [Example 19C, N-((1-(2-(3-(1H-pyrazol-5-yl)phenyl)-5-fluoropyrimidin-4-yl)piperidin-4-yl)methyl)-3-(cyclopropylmethoxy)-5-methoxybenzamide] the figure was less than 10 nM; with `COc1cc(OCC2CC2)cc(C(=O)NCC2CCN(c3ccnc(-c4ccc5[nH]ncc5c4)n3)CC2)c1` [Example 19E, N-((1-(2-(1H-indazol-5-yl)pyrimidin-4-yl)piperidin-4-yl)methyl)-3-(cyclopropylmethoxy)-5-methoxybenzamide], 10 to 100 nM; with `COC(=O)c1cnc(-c2cccc(-n3cccn3)c2)nc1N1CCC(CNC(=O)c2cc(OC)cc(OC)c2)CC1` [Example 21B, methyl 2-(3-(1H-pyrazol-1-yl)phenyl)-4-(4-((3,5-dimethoxybenzamido)methyl)piperidin-1-yl)pyrimidine-5-carboxylate], 10 to 100 nM. Then `COc1cc(OCCO)cc(C(=O)NCC2CCN(c3nc(-c4cccc(-c5cc[nH]n5)c4)ncc3F)CC2)c1` [Example 22, N-((1-(2-(3-(1H-pyrazol-3-yl)phenyl)-5-fluoropyrimidin-4-yl)piperidin-4-yl)methyl)-3-(2-hydroxyethoxy)-5-methoxybenzamide], with 10 to 100 nM; and `COCCCOc1cc(OC)cc(C(=O)NCC2CCN(c3nc(-c4cccc(-c5cc[nH]n5)c4)ncc3F)CC2)c1` [Example 23A, N-((1-(2-(3-(1H-pyrazol-3-yl)phenyl)-5-fluoropyrimidin-4-yl)piperidin-4-yl)methyl)-3-methoxy-5-(3-methoxypropoxy)benzamide], with 10 to 100 nM; and `C#CCOc1cc(OC)cc(C(=O)NCC2CCN(c3nc(-c4cccc(-c5cc[nH]n5)c4)ncc3F)CC2)c1` [Example 23C, N-((1-(2-(3-(1H-pyrazol-3-yl)phenyl)-5-fluoropyrimidin-4-yl)piperidin-4-yl)methyl)-3-methoxy-5-(prop-2-ynoxy)benzamide], with 10 to 100 nM. On to `COc1cc(OCC2CC2)cc(C(=O)NCC2CCN(c3nc(-c4cccc(-n5ccnn5)c4)ncc3F)CC2)c1` [Example 28C, N-((1-(2-(3-(1H-1,2,3-triazol-1-yl)phenyl)-5-fluoropyrimidin-4-yl)piperidin-4-yl)methyl)-3-(cyclopropylmethoxy)-5-methoxybenzamide], for which the IC50 was 10 to 100 nM. Take `COc1cc(OCC(F)(F)F)cc(C(=O)NCC2CCN(c3ncnc(-c4cccc(C#N)c4)n3)CC2)c1` [Example 30C, N-((1-(4-(3-cyanophenyl)-1,3,5-triazin-2-yl)piperidin-4-yl)methyl)-3-methoxy-5-(2,2,2-trifluoroethoxy)benzamide]: the IC50 was 10 to 100 nM. Regarding `COc1cc(OCC(F)(F)F)cc(C(=O)NCC2CCN(c3ncnc(-c4cccc(C#N)c4)n3)CC2)c1` [Example 30D, N-((1-(4-(3-cyanophenyl)-1,3,5-triazin-2-yl)piperidin-4-yl)methyl)-3-methoxy-5-(2,2,2-trifluoroethoxy)benzamide], the half-maximal inhibitory concentration (IC50) is less than 10 nM. With `COc1cc(OCC2CC2)cc(C(=O)NCC2CCN(c3ccnc(-c4cccc(C(=O)Nc5ccn(C)n5)c4)n3)CC2)c1` [Example 32C, 3-(cyclopropylmethoxy)-5-methoxy-N-((1-(2-(3-(1-methyl-1H-pyrazol-3-ylcarbamoyl)phenyl)pyrimidin-4-yl)piperidin-4-yl)methyl)benzamide] the figure was less than 10 nM. Then `COc1cc(OCC2CC2)cc(C(=O)NCC2CCN(c3ccnc(-c4cccc(C(=O)NC(C)(C)C)c4)n3)CC2)c1` [Example 32F, N-((1-(2-(3-(tert-butylcarbamoyl)phenyl)pyrimidin-4-yl)piperidin-4-yl)methyl)-3-(cyclopropylmethoxy)-5-methoxybenzamide], with 10 to 100 nM.

(Values after patent publication US8993757B2, “N-piperidin-4-yl derivatives” (Merck Sharp & Dohme B.V., priority 2011, dated 2015).)
